Assay: Stability of the polymorphic form: XRPD, IR and DSC characterization repeated one year later
Assay type: physicochemical
Conditions: solid from Example 11 (crystallised from 2-propanol)
Procedure: A PHILIPS X′ Pert diffractometer provided with a Cu tube and a secondary monochromator made of graphite (wavelength Kα Cu, 1.5419 Å) was used to record the X-ray powder diffractograms. Reception slot: 0.1 mm; Soller: 0.04 rad; antidiffusion slot and divergence slot: 1°.
2.61 g of Granisetron base is dissolved in 7.0 ml of 2-propanol, and is taken to reflux, when all the product is dissolved, the resultant dissolution is allowed to cool to 15° C. and the resultant solid is filtered and washed with 2-propanol. 2.47 g of Granisetron base is recovered (95%). Said Granisetron base is characterized as Form I with the following data of XRPD, IR and DSC: […]

CN1C2CCCC1CC(NC(=O)c1nn(C)c3ccccc13)C2 (stereo not drawn) [Form I of Granisetron base, endo-1-methyl-N-(9-methyl-9-azabicycle[3.3.1]non-3-yl)-1H-indazole-3-carboxamide]
Stability of polymorphic form (XRPD, IR and DSC characterization repeated, same result obtained): stable

From patent publication US8304426B2, “Polymorphic form of Granisetron base, methods for obtaining it and formulation containing it” (Inke, S.A., priority 2007, dated 2012)
